According to PubChem BioAssay (NCI):
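Cells were grown in 96-well plates and exposed to each compound for 48 hours at five concentrations; endpoints were interpolated linearly between bracketing concentrations, or set to the highest concentration if not reached. TGI: total growth inhibition.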

How the values were obtained:
Experiment in all cases: inhibition of tumour cell growth, NCI panel, 48 h
[1] = tested on: SK-MEL-28 melanoma
[2] = tested on: OVCAR-5 ovarian
[3] = tested on: HCC-2998 colon
[4] = tested on: CCRF-CEM leukemia
[5] = tested on: DMS 273 small cell lung
[6] = tested on: HCT-15 colon
[7] = tested on: NCI-H460 lung
[8] = tested on: HT29 colon
[9] = tested on: KM12 colon
[10] = tested on: A498 renal
[11] = tested on: SF-268 CNS
[12] = tested on: RXF 393 renal
[13] = tested on: UO-31 renal
[14] = tested on: SNB-19 CNS
[15] = tested on: OVCAR-3 ovarian
[16] = tested on: LOX IMVI melanoma
[17] = tested on: HCT-116 colon
[18] = tested on: OVCAR-4 ovarian
[19] = tested on: KM20L2 colon
[20] = tested on: A549 NSCLC
[21] = tested on: COLO 205 colon
[22] = tested on: SNB-78 CNS
[23] = tested on: RPMI-8226 leukemia
[24] = tested on: EKVX NSCLC
[25] = tested on: DMS 114 small cell lung
[26] = tested on: MOLT-4 leukemia
[27] = tested on: HOP-62 NSCLC
[28] = tested on: ACHN renal
[29] = tested on: U251 CNS
[30] = tested on: NCI-H23 lung
[31] = tested on: SF-539 CNS
[32] = tested on: M14 melanoma
[33] = tested on: HL-60(TB) leukemia
[34] = tested on: LXFL 529 NSCLC
[35] = tested on: SK-MEL-2 melanoma
[36] = tested on: TK-10 renal
[37] = tested on: K-562 leukemia
[38] = tested on: 786-0 renal
[39] = tested on: SN12C renal
[40] = tested on: NCI-H226 lung
[41] = tested on: NCI-H522 lung
[42] = tested on: CAKI-1 renal
[43] = tested on: SW-620 colon
[44] = tested on: SR leukemia
[45] = tested on: UACC-257 melanoma
[46] = tested on: SK-MEL-5 melanoma
[47] = tested on: NCI/ADR-RES ovarian
[48] = tested on: MDA-MB-231 breast
[49] = tested on: DLD-1 colon
[50] = tested on: DU-145 prostate
[51] = tested on: SF-295 CNS
[52] = tested on: HS 578T breast
[53] = tested on: PC-3 prostate
[54] = tested on: SK-OV-3 ovarian
[55] = tested on: SNB-75 CNS
[56] = tested on: MDA-MB-435
[57] = tested on: MDA-N
[58] = tested on: MALME-3M melanoma
[59] = tested on: T-47D breast
[60] = tested on: M19-MEL melanoma
[61] = tested on: IGROV1 ovarian
[62] = tested on: HOP-92 NSCLC
[63] = tested on: OVCAR-8 ovarian
[64] = tested on: MCF7 breast
[65] = tested on: BT-549 breast
[66] = tested on: UACC-62 melanoma
[67] = tested on: HOP-18 NSCLC
[68] = tested on: RXF-631 renal

Compound: O=C(O)CCSC(=O)Nc1ccccc1F
- TGI [1]: > 100 µM
- TGI [2]: > 100 µM
- TGI [3]: > 100 µM
- TGI [4]: > 100 µM
- TGI [5]: > 100 µM
- TGI [6]: > 100 µM
- TGI [7]: > 100 µM
- TGI [8]: > 100 µM
- TGI [9]: > 100 µM
- TGI [10]: > 100 µM
- TGI [11]: > 100 µM
- TGI [12]: > 100 µM
- TGI [13]: > 100 µM
- TGI [14]: > 100 µM
- TGI [15]: > 100 µM
- TGI [16]: > 100 µM
- TGI [17]: > 100 µM
- TGI [18]: > 100 µM
- TGI [19]: > 100 µM
- TGI [20]: > 100 µM
- TGI [21]: > 100 µM
- TGI [22]: > 100 µM
- TGI [23]: > 100 µM
- TGI [24]: > 100 µM
- TGI [25]: > 100 µM
- TGI [26]: > 100 µM
- TGI [27]: > 100 µM
- TGI [28]: > 100 µM
- TGI [29]: > 100 µM
- TGI [30]: > 100 µM
- TGI [31]: > 100 µM
- TGI [32]: > 100 µM
- TGI [33]: > 100 µM
- TGI [34]: > 100 µM
- TGI [35]: > 100 µM
- TGI [36]: > 100 µM
- TGI [37]: > 100 µM
- TGI [38]: > 100 µM
- TGI [39]: > 100 µM
- TGI [40]: > 100 µM
- TGI [41]: > 100 µM
- TGI [42]: > 100 µM
- TGI [43]: > 100 µM
- TGI [44]: > 100 µM

Compound: CCCCN(Cc1ccccc1)C(=NC#N)N(Cc1ccccc1)Cc1ccccc1
- TGI [1]: > 100 µM
- TGI [2]: > 100 µM
- TGI [45]: 50.7 µM
- TGI [3]: > 75.7 µM
- TGI [4]: > 100 µM
- TGI [5]: 43.6 µM
- TGI [46]: 29.4 µM
- TGI [47]: 59.7 µM
- TGI [6]: 77.2 µM
- TGI [7]: > 100 µM
- TGI [8]: 85.2 µM
- TGI [9]: 54 µM
- TGI [10]: > 100 µM
- TGI [48]: 51.7 µM
- TGI [11]: > 100 µM
- TGI [12]: 63.8 µM
- TGI [49]: > 100 µM
- TGI [13]: > 52.4 µM
- TGI [14]: > 100 µM
- TGI [15]: 28.9 µM
- TGI [50]: > 100 µM
- TGI [16]: 35.1 µM
- TGI [51]: > 66 µM
- TGI [17]: 31.8 µM
- TGI [18]: > 100 µM
- TGI [52]: 99.1 µM
- TGI [19]: 95.6 µM
- TGI [53]: 32.8 µM
- TGI [20]: > 100 µM
- TGI [21]: 32.2 µM
- TGI [22]: > 100 µM
- TGI [23]: 49.8 µM
- TGI [54]: > 96.1 µM
- TGI [55]: 71.4 µM
- TGI [56]: 59.3 µM
- TGI [24]: > 100 µM
- TGI [57]: 59.9 µM
- TGI [58]: 79.4 µM
- TGI [59]: > 100 µM
- TGI [26]: > 100 µM
- TGI [27]: 75.3 µM
- TGI [28]: > 72.3 µM
- TGI [29]: 81.4 µM
- TGI [60]: 62.6 µM
- TGI [30]: > 74.5 µM
- TGI [31]: 46.8 µM
- TGI [61]: > 89.5 µM
- TGI [32]: 47.4 µM
- TGI [62]: 53.1 µM
- TGI [33]: > 100 µM
- TGI [34]: 34.3 µM
- TGI [35]: 37.6 µM
- TGI [36]: > 100 µM
- TGI [63]: > 100 µM
- TGI [37]: > 100 µM
- TGI [64]: > 100 µM
- TGI [38]: 56.2 µM
- TGI [39]: > 80.5 µM
- TGI [40]: 70.5 µM
- TGI [41]: 40.6 µM
- TGI [65]: 62.8 µM
- TGI [42]: 58.4 µM
- TGI [43]: > 100 µM
- TGI [66]: 74.7 µM

Compound: CN(C)CCNC(=O)c1cccc2[nH]c(-c3cccnc3)nc12
- TGI [1]: 83.8 µM
- TGI [2]: 64.2 µM
- TGI [45]: 39.9 µM
- TGI [3]: 43.4 µM
- TGI [4]: > 100 µM
- TGI [5]: 74.4 µM
- TGI [46]: 30.8 µM
- TGI [6]: 79.6 µM
- TGI [7]: 49.9 µM
- TGI [8]: 92.8 µM
- TGI [9]: > 100 µM
- TGI [10]: 30.6 µM
- TGI [11]: 98.7 µM
- TGI [12]: 33.8 µM
- TGI [49]: 73.1 µM
- TGI [13]: 39.5 µM
- TGI [14]: > 100 µM
- TGI [15]: 56.3 µM
- TGI [16]: 48.7 µM
- TGI [51]: > 100 µM
- TGI [17]: 42.8 µM
- TGI [18]: 88.9 µM
- TGI [20]: 43.5 µM
- TGI [21]: 32.5 µM
- TGI [22]: > 100 µM
- TGI [54]: 80.3 µM
- TGI [55]: 73.3 µM
- TGI [24]: 56.5 µM
- TGI [26]: > 100 µM
- TGI [27]: 44.1 µM
- TGI [28]: 37 µM
- TGI [29]: 74.7 µM
- TGI [60]: 39.8 µM
- TGI [30]: 44.9 µM
- TGI [31]: 45.5 µM
- TGI [61]: > 100 µM
- TGI [32]: 43.8 µM
- TGI [62]: 53.9 µM
- TGI [33]: > 100 µM
- TGI [35]: 62.8 µM
- TGI [36]: 53.5 µM
- TGI [63]: 44.1 µM
- TGI [37]: > 100 µM
- TGI [38]: 55.6 µM
- TGI [39]: 54.4 µM
- TGI [40]: 56.6 µM
- TGI [42]: 88.1 µM
- TGI [43]: 42.1 µM
- TGI [67]: 84 µM
- TGI [66]: 34.2 µM

Compound: COc1ccc(C(=O)O)c2c(=O)c3cccnc3[nH]c12
- TGI [1]: > 100 µM
- TGI [2]: > 100 µM
- TGI [45]: > 100 µM
- TGI [4]: > 100 µM
- TGI [7]: > 100 µM
- TGI [8]: > 100 µM
- TGI [9]: > 100 µM
- TGI [10]: > 100 µM
- TGI [12]: > 100 µM
- TGI [13]: > 100 µM
- TGI [14]: > 100 µM
- TGI [51]: > 100 µM
- TGI [17]: > 100 µM
- TGI [19]: > 100 µM
- TGI [20]: > 100 µM
- TGI [22]: > 100 µM
- TGI [54]: > 100 µM
- TGI [24]: > 100 µM
- TGI [25]: > 100 µM
- TGI [26]: > 100 µM
- TGI [27]: > 100 µM
- TGI [28]: > 100 µM
- TGI [29]: > 100 µM
- TGI [60]: > 100 µM
- TGI [30]: > 100 µM
- TGI [61]: > 100 µM
- TGI [32]: > 100 µM
- TGI [62]: > 100 µM
- TGI [33]: > 100 µM
- TGI [36]: > 100 µM
- TGI [63]: > 100 µM
- TGI [41]: > 100 µM
- TGI [68]: > 100 µM
- TGI [66]: > 100 µM
- TGI [44]: > 100 µM
